Results as given in publication PMC7402526, “An in vitro quantitative systems pharmacology approach for deconvolving mechanisms of drug-induced, multilineage cytopenias” (PLoS Computational Biology, 2020).

Legend:
[1] = test system: multi-potent progenitors (MPPs); assay: MLTA, MPPs: concentration-response and QSP model fit; assay type: cell-based, human; settings: Homo sapiens, 144 h
Summary of the method: (§1)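 Six-day flow cytometry counts, bead-normalized and expressed relative to the mean of six vehicle wells, underlie each value. Cells were primary human bone marrow CD34+ cells cultured in SFEM II with cytokines promoting multi-lineage differentiation and self-renewal.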

[2] = test system: granulocyte-macrophage progenitor (GMPs); assay: MLTA, GMPs: concentration-response and QSP model fit; assay type: cell-based, human; settings: Homo sapiens, 144 h
Summary of the method: as §1

MK cells (MK-lin) = assay: MLTA, MK: concentration-response and QSP model fit; assay type: cell-based, human; settings: Homo sapiens, 144 h
Summary of the method: as §1

[3] = test system: granulocyte progenitor (Gran-lin prog); assay: MLTA, GranP: concentration-response and QSP model fit; assay type: cell-based, human; settings: Homo sapiens, 144 h
Summary of the method: (§2)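 Drug was added at time 0 to thawed human bone marrow CD34+ cells in SFEM II plus a cytokine cocktail. After 6 days at 37°C, subsets were counted by surface-marker flow with TruCount beads. Vehicle-normalized, donor-pooled data then fed an Emax model separating anti-proliferative from cell-killing effects.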

[4] = test system: lymphocyte progenitors (LymP); assay: MLTA, LymP: concentration-response and QSP model fit; assay type: cell-based, human; settings: Homo sapiens, Lymphocyte, 144 h
Summary of the method: as §1

[5] = test system: total viable cells (totalViableCells); assay: MLTA, total live cells concentration-response; assay type: cell-based; settings: Homo sapiens, 144 h, 6 days, normalized to vehicle control, read-out: total_live normalized cell count
Summary of the method: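 Freeze-thawed primary human bone marrow CD34+ cells in SFEM II with cytokine cocktail, drug added day 0, 6 days at 37°C, 5% CO2. Live/dead counts by 17-parameter flow cytometry with DAPI exclusion, bead-normalized, volume-corrected to cells/mL. Normalized per donor to mean of six vehicle wells; 2–7 donors pooled.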

B cells (B-lin) = assay: MLTA, B-lin: concentration-response and QSP model fit; assay type: cell-based, human; settings: Homo sapiens, B-cell, 144 h
Summary of the method: as §1

[6] = test system: early erythroid cells (Eryth I); assay: MLTA, ErythI: concentration-response and QSP model fit; assay type: cell-based, human; settings: Homo sapiens, 144 h
Summary of the method: as §2

[7] = QSP model fit of 6-day MLTA data

EC50 [2, 7]: 0.00141 µM
EC50 (MK cells (MK-lin); [7]): 1.07 µM
EC50 ([3]; QSP model fit of 6-day MLTA data, read-out: EC50GranP): 0.093 µM
EC50 (B cells (B-lin); [7]): 0.0913 µM
SMILES: CS(=O)(=O)N1CCN(Cc2cc3nc(-c4cccc5[nH]ncc45)nc(N4CCOCC4)c3s2)CC1 [pictilisib]
activity at 0.0002 µM ([1]; dose 0.2 nM, 6 days, normalized to vehicle control, read-out: MPPs normalized cell count): 89.3%
activity at 0.001 µM ([1]; dose 1 nM, 6 days, normalized to vehicle control, read-out: MPPs normalized cell count): 82.2%
activity at 0.005 µM ([1]; dose 5 nM, 6 days, normalized to vehicle control, read-out: MPPs normalized cell count): 71.7%
activity at 0.025 µM ([1]; dose 25 nM, 6 days, normalized to vehicle control, read-out: MPPs normalized cell count): 67.2%
activity at 0.1 µM ([1]; dose 100 nM, 6 days, normalized to vehicle control, read-out: MPPs normalized cell count): 49.1%
activity at 0.5 µM ([1]; dose 500 nM, 6 days, normalized to vehicle control, read-out: MPPs normalized cell count): 38.2%
activity at 2.5 µM ([1]; dose 2500 nM, 6 days, normalized to vehicle control, read-out: MPPs normalized cell count): 28%
Emax ([1]; parameter from QSP model fitting, read-out: Emax_drug_MPP): 0.03%
activity at 0.0002 µM ([2]; dose 0.2 nM, 6 days, normalized to vehicle control, read-out: GMPs normalized cell count): 95.6%
activity at 0.001 µM ([2]; dose 1 nM, 6 days, normalized to vehicle control, read-out: GMPs normalized cell count): 97.9%
activity at 0.005 µM ([2]; dose 5 nM, 6 days, normalized to vehicle control, read-out: GMPs normalized cell count): 92.7%
activity at 0.025 µM ([2]; dose 25 nM, 6 days, normalized to vehicle control, read-out: GMPs normalized cell count): 75.4%
activity at 0.1 µM ([2]; dose 100 nM, 6 days, normalized to vehicle control, read-out: GMPs normalized cell count): 62.5%
activity at 0.5 µM ([2]; dose 500 nM, 6 days, normalized to vehicle control, read-out: GMPs normalized cell count): 39.5%
activity at 2.5 µM ([2]; dose 2500 nM, 6 days, normalized to vehicle control, read-out: GMPs normalized cell count): 22.5%
activity at 0.0002 µM (MK cells (MK-lin); dose 0.2 nM, 6 days, normalized to vehicle control, read-out: MK normalized cell count): 100%
activity at 0.001 µM (MK cells (MK-lin); dose 1 nM, 6 days, normalized to vehicle control, read-out: MK normalized cell count): 107%
activity at 0.005 µM (MK cells (MK-lin); dose 5 nM, 6 days, normalized to vehicle control, read-out: MK normalized cell count): 113%
activity at 0.025 µM (MK cells (MK-lin); dose 25 nM, 6 days, normalized to vehicle control, read-out: MK normalized cell count): 85.6%
activity at 0.1 µM (MK cells (MK-lin); dose 100 nM, 6 days, normalized to vehicle control, read-out: MK normalized cell count): 78.4%
activity at 0.5 µM (MK cells (MK-lin); dose 500 nM, 6 days, normalized to vehicle control, read-out: MK normalized cell count): 49.7%
activity at 2.5 µM (MK cells (MK-lin); dose 2500 nM, 6 days, normalized to vehicle control, read-out: MK normalized cell count): 16.8%
Emax (MK cells (MK-lin); parameter from QSP model fitting, read-out: Emax_drug_MK): 12.3%
activity at 0.0002 µM ([3]; dose 0.2 nM, 6 days, normalized to vehicle control, read-out: GranPs normalized cell count): 95.5%
activity at 0.001 µM ([3]; dose 1 nM, 6 days, normalized to vehicle control, read-out: GranPs normalized cell count): 100%
activity at 0.005 µM ([3]; dose 5 nM, 6 days, normalized to vehicle control, read-out: GranPs normalized cell count): 101%
activity at 0.025 µM ([3]; dose 25 nM, 6 days, normalized to vehicle control, read-out: GranPs normalized cell count): 84%
activity at 0.1 µM ([3]; dose 100 nM, 6 days, normalized to vehicle control, read-out: GranPs normalized cell count): 70.2%
activity at 0.5 µM ([3]; dose 500 nM, 6 days, normalized to vehicle control, read-out: GranPs normalized cell count): 60.8%
activity at 2.5 µM ([3]; dose 2500 nM, 6 days, normalized to vehicle control, read-out: GranPs normalized cell count): 28.4%
Emax ([3]; parameter from QSP model fitting, read-out: Emax_drug_GranP): 60.5%
activity at 0.0002 µM ([4]; dose 0.2 nM, 6 days, normalized to vehicle control, read-out: LymP normalized cell count): 93.3%
activity at 0.001 µM ([4]; dose 1 nM, 6 days, normalized to vehicle control, read-out: LymP normalized cell count): 105%
activity at 0.005 µM ([4]; dose 5 nM, 6 days, normalized to vehicle control, read-out: LymP normalized cell count): 86.9%
activity at 0.025 µM ([4]; dose 25 nM, 6 days, normalized to vehicle control, read-out: LymP normalized cell count): 77.7%
activity at 0.1 µM ([4]; dose 100 nM, 6 days, normalized to vehicle control, read-out: LymP normalized cell count): 49.6%
activity at 0.5 µM ([4]; dose 500 nM, 6 days, normalized to vehicle control, read-out: LymP normalized cell count): 46.4%
activity at 2.5 µM ([4]; dose 2500 nM, 6 days, normalized to vehicle control, read-out: LymP normalized cell count): 19.2%
Emax ([4]; parameter from QSP model fitting, read-out: Emax_drug_LymP): 0.032%
viability at 0.0002 µM ([5]; dose 0.2 nM): 97.8%
viability at 0.001 µM ([5]; dose 1 nM): 96.4%
viability at 0.005 µM ([5]; dose 5 nM): 91.2%
viability at 0.025 µM ([5]; dose 25 nM): 84%
viability at 0.1 µM ([5]; dose 100 nM): 60.1%
viability at 0.5 µM ([5]; dose 500 nM): 33.9%
viability at 2.5 µM ([5]; dose 2500 nM): 12.9%
activity at 0.0002 µM (B cells (B-lin); dose 0.2 nM, 6 days, normalized to vehicle control, read-out: B-lin normalized cell count): 93.8%
activity at 0.001 µM (B cells (B-lin); dose 1 nM, 6 days, normalized to vehicle control, read-out: B-lin normalized cell count): 107%
activity at 0.005 µM (B cells (B-lin); dose 5 nM, 6 days, normalized to vehicle control, read-out: B-lin normalized cell count): 81.5%
activity at 0.025 µM (B cells (B-lin); dose 25 nM, 6 days, normalized to vehicle control, read-out: B-lin normalized cell count): 65.5%
activity at 0.1 µM (B cells (B-lin); dose 100 nM, 6 days, normalized to vehicle control, read-out: B-lin normalized cell count): 37.5%
activity at 0.5 µM (B cells (B-lin); dose 500 nM, 6 days, normalized to vehicle control, read-out: B-lin normalized cell count): 16.2%
activity at 2.5 µM (B cells (B-lin); dose 2500 nM, 6 days, normalized to vehicle control, read-out: B-lin normalized cell count): 6.19%
Emax (B cells (B-lin); parameter from QSP model fitting, read-out: Emax_drug_B): 51.4%
activity at 0.0002 µM ([6]; dose 0.2 nM, 6 days, normalized to vehicle control, read-out: ErythI normalized cell count): 110%
activity at 0.001 µM ([6]; dose 1 nM, 6 days, normalized to vehicle control, read-out: ErythI normalized cell count): 107%
activity at 0.005 µM ([6]; dose 5 nM, 6 days, normalized to vehicle control, read-out: ErythI normalized cell count): 107%
activity at 0.025 µM ([6]; dose 25 nM, 6 days, normalized to vehicle control, read-out: ErythI normalized cell count): 100%
activity at 0.1 µM ([6]; dose 100 nM, 6 days, normalized to vehicle control, read-out: ErythI normalized cell count): 92.8%
activity at 0.5 µM ([6]; dose 500 nM, 6 days, normalized to vehicle control, read-out: ErythI normalized cell count): 65.5%
activity at 2.5 µM ([6]; dose 2500 nM, 6 days, normalized to vehicle control, read-out: ErythI normalized cell count): 27.5%
Emax ([6]; parameter from QSP model fitting, read-out: Emax_drug_ErythroidI): 0.03%
